Residues, ends and D or L forms follow the SMILES beside them. *: point of attachment. Cbz = O=C(OCc1ccccc1)*
B1: IFNγ: IFNγ (known to activate PD-L1 transcription) (protein, UniProt P01579 24-161, looked up)
Interferon gamma: QDPYVKEAENLKKYFNAGHSDVADNGTLFLGILKNWKEESDRKIMQSQIVSFYFKLFKNFKDDQSIQKSVETIKEDMNVKFFNSNKKKRDDFEKLTNYSVTDLNVQRKAIHELIQVMAELSPAAKTGKRKRSQMLFRG

Columns and labels:
[1] = system: SU86.86 cells; assay: qPCR, immunoblotting and flow cytometry of PD-L1 and MHC-I pathway expression in SU86.86 cells; type: cell-based, human; conditions: immunoblotting, mifepristone 20 μM, 48 h with MG132 (10 μM, 6 h) or chloroquine (20 μM, 4 h)
Method: (See Bardeesy, N., et al. supra). The human PDAC cell lines SU86.86 ([…]), SW1990 ([…]), BXPC-3 ([…]), Miapaca-2 ([…]), Capan-1 ([…]), ASPC-1 ([…]), Hs766T ([…]), Colo357/FG ([…]), L3.6PL ([…]), Panc28 ([…]), Capan-2 ([…]), CF-Pac-1 ([…]), Panc3 (sex unknown), Panc1 ([…]), Panc48 (sex unknown), and HPAC ([…]) were from Mien-Chie Hung's lab stock. […] The BXPC-3, Miapaca-2, Capan-1, ASPC-1, Colo357/FG, L3.6PL, Panc28, Capan-2, CF-Pac-1, Panc3, Panc1, Panc48, and HPAC cell lines were cultured in DMEM/F-12 (Corning, 10-092-CV) supplemented with 10% FBS and 1% penicillin/streptomycin. Cells were grown in a humidified incubator with 5% CO2 at 37° C., and low-passage stocks were maintained in a centralized lab cell bank. Short tandem repeat profiling and mycoplasma tests were done by the Cytogenetics and Cell Authentication Core at MD Anderson Cancer Center.
Membranes were blocked with 10% non-fat milk in TBST and incubated with the primary antibody at 4° C. overnight, followed by incubation with the secondary antibody conjugated with horseradish peroxidase (HRP).

[2] = system: human PD-L1, HLA-B, HLA-C, and B2M gene promoter regions; assay: Luciferase reporter assay in SU86.86 cells; type: cell-based; conditions: IFNγ 10 ng ml^−1, 8 h, abrogated by knockdown of GR
From the text: (§1) Human PD-L1 promoter-reporter constructs (Coelho, M. A., et al. Oncogenic RAS Signaling Promotes Tumo Immunoresistance by Stabilizing PD-L1 mRNA. Immunity 47, 1083-1099 e1086 (2017)) were purchased from Addgene (Addgene numbers: 107002, 107003, 107004, 107006, and 107007). The GR activity reporter plasmid was purchased from Qiagen (ID: C82DB0D7-3D10-4B1C-A358-411558D2DE01). The promoter regions of human HLA-B, HLA-C, and B2M were PCR-amplified from genomic DNA of the SU86.86 cell line (PCR primers are listed as SEQ ID NOs.: 1-6. The linearized pGL3-basic plasmid was amplified by PCR (Forward primer SEQ ID NO: 7; reverse primer SEQ ID NO: 8), and PCR products of promoter regions were ligated to linearized pGL3-basic using the In-Fusion HD Cloning Kit (Takara Bio, 638909).
(§2) The firefly luciferase reporter containing the human gene promoter was co-transfected with a Renilla luciferase vector (for normalization) into SU86.86 cells using jetPRIME transfection reagent (VWR, 89129-922). […] Firefly and Renilla luciferase activities were measured using a Dual-Luciferase Reporter Assay (Promega, E1910) on a microplate reader according to the manufacturer's protocol. Firefly luciferase activity was normalized to Renilla luciferase activity.

[3] = system: human PD-L1 gene promoter regions; assay: Luciferase reporter assay in SW1990 cells; type: cell-based; conditions: IFNγ 10 ng ml^−1, 8 h, abrogated by knockdown of GR
From the text: as §1, §2

Row | Molecule | effect on mifepristone-mediated PD-L1 downregulation and MHC-I upregulation [1] | activity of the PD-L1 promoter reporters [2] | activity of the PD-L1 promoter reporters [3]
1 | CCN(CC)CCCC(C)Nc1ccnc2cc(Cl)ccc12 (stereo not shown) [chloroquine] | did not affect |  | 
2 | CC(C)C[C@@H](C=O)NC(=O)[C@H](CC(C)C)NC(=O)[C@H](CC(C)C)NC(=O)OCc1ccccc1 [MG132] (Cbz-Leu-Leu-Leu-aldehyde) | did not affect |  | 
3 | B1 |  | induced | induced
